Experimental data published in patent US20230233569A1 (Revolution Medicines, Inc., priority 2020, published 2023).
Like-named read-outs stand apart in the source and are kept apart here.

Tests used:
[1] = tested on: K-Ras G12C (NCI-H358 cells); assay: Potency assay: pERK (AlphaLISA SureFire or In-Cell Western); format: cell-based; conditions: Homo sapiens
Protocol: (§1) The purpose of this assay is to measure the ability of test compounds to inhibit K-Ras in cells. […] This procedure measures a decrease in cellular pERK in response to test compounds.
(§2) NCI-H358 cells were grown and maintained using media and procedures recommended by the ATCC. On the day prior to compound addition, cells were plated in 384-well cell culture plates (40 μl/well) and grown overnight in a 37° C., 5% CO2 incubator. Test compounds were prepared in 10, 3-fold dilutions in DMSO, with a high concentration of 10 mM. On the day of assay, 40 nL of test compound was added to each well of cell culture plate using an Echo550 liquid handler (LabCyte®). Concentrations of test compound were tested in duplicate. After compound addition, cells were incubated 4 hours at 37° C., 5% CO2. Following incubation, culture medium was removed and cells were washed once with phosphate buffered saline.
(§3) In some experiments, cellular pERK level was determined using the AlphaLISA SureFire Ultra p-ERK1/2 Assay Kit (PerkinElmer). Cells were lysed in 25 μL lysis buffer, with shaking at 600 RPM at room temperature. […] After a 2-hour incubation in the dark, 5 μL donor mix was added, plate was sealed, and incubated 2 hours at room temperature. Signal was read on an Envision plate reader (PerkinElmer) using standard AlphaLISA settings. Analysis of raw data was carried out in Excel (Microsoft) and Prism (GraphPad). Signal was plotted vs. the decadal logarithm of compound concentration, and IC50 was determined by fitting a 4-parameter sigmoidal concentration response model.
In other experiments, cellular pERK was determined by In-Cell Western. […] Fixed cells were washed 4 times for 5 minutes with TBS containing 0.1% Triton X-100 (TBST) and then blocked with 100 μL Odyssey blocking buffer (LI-COR) for 60 minutes at room temperature. […] Cells were washed 4 times for 5 minutes with TBST. Secondary antibody (IR-800CW rabbit, LI-COR, diluted 1:800) and DNA stain DRAQ5 (LI-COR, diluted 1:2000) were added and incubated 1-2 hours at room temperature. Cells were washed 4 times for 5 minutes with TBST. Plates were scanned on a LI-COR Odyssey CLx Imager. Analysis of raw data was carried out in Excel (Microsoft) and Prism (GraphPad). Signal was plotted vs. the decadal logarithm of compound concentration, and IC50 was determined by fitting a 4-parameter sigmoidal concentration response model.
as §1
as §2, with “mM. On day of” for “mM. On the day of”, “assay, 40 nl of test” for “assay, 40 nL of test”
as §3, with “μl” for “μL”, “sealed” for “sealed,”

NCI-H358 (K-Ras G12C) = assay: CellTiter-Glo cell viability assay, 5-day treatment; format: cell-based; conditions: Homo sapiens
How it was run: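 Five-day compound treatment of plated cells; luminescent read after ~30 min at RT. Percent-of-DMSO data fit to a four-parameter logistic model.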

KRAS G12D = KRAS G12D (Homo sapiens, UniProt P01116+P62937, G12D); assay: Disruption of BRAF RBD interaction with Ras (FRET / MOA assay, with Cyclophilin A); format: biochemical; conditions: read-out: KRAS G12D FRET data, IC50
How it was run: (§4)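 Here, compound titrations (ten points, factor 3, from 30 μM final) act on nucleotide-bound K-Ras and Cyclophilin A, and ternary complex formation disrupts the RAF RBD interaction.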

KRAS WT = KRAS WT (Homo sapiens, UniProt P01116+P62937); assay: as above; format: biochemical; conditions: KRAS WT; read-out: KRAS WT FRET data IC50
How it was run: as §4

NRAS G12C = NRAS G12C (Homo sapiens, UniProt P01111+P62937, G12C); assay: as above; format: biochemical; conditions: NRAS G12C; read-out: NRAS G12C FRET data IC50
KRAS G13D = KRAS G13D (Homo sapiens, UniProt P01116+P62937, G13D); assay: as above; format: biochemical; conditions: KRAS G13D; read-out: KRAS G13D FRET data IC50
How it was run: as §4

KRAS G12V = KRAS G12V (Homo sapiens, UniProt P01116+P62937, G12V); assay: as above; format: biochemical; conditions: KRAS G12V; read-out: KRAS G12V FRET data IC50
How it was run: as §4

KRAS G12C = KRAS G12C (Homo sapiens, UniProt P01116+P62937, G12C); assay: as above; format: biochemical; conditions: KRAS G12C; read-out: KRAS G12C FRET data IC50
How it was run: as §4

KRAS G13C = KRAS G13C (Homo sapiens, UniProt P01116+P62937, G13C); assay: as above; format: biochemical; conditions: KRAS G13C; read-out: KRAS G13C FRET data IC50
How it was run: as §4

KRAS G12S = KRAS G12S (Homo sapiens, UniProt P01116+P62937, G12S); assay: as above; format: biochemical; conditions: read-out: KRAS G12S FRET data, IC50
How it was run: as §4

[2] = NCI-H358, H358 KRAS G12C, read-out: pERK EC50
[3] = NCI-H358, H358, K-Ras G12C, read-out: Additional H358 Cell Viability assay data (K-Ras G12C, IC50)

NRAS G12C, sequence (P01111 whole entry G12C): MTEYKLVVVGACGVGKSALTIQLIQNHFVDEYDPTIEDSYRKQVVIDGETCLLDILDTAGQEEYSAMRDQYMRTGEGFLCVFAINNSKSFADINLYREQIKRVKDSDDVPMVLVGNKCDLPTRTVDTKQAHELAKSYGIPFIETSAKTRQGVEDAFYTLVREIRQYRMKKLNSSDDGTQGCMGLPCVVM
NRAS G12C, sequence (P62937 whole entry): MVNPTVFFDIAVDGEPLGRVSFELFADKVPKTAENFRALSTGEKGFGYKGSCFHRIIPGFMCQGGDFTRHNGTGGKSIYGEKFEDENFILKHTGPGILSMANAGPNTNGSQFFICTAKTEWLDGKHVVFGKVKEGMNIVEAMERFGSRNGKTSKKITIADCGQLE
KRAS G12C, sequence (P01116 1-169 isoform P01116-2 G12C): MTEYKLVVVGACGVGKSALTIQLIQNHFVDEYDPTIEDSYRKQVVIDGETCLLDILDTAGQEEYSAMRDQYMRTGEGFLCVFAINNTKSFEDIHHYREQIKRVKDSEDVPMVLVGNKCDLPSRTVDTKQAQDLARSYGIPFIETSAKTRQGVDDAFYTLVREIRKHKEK
KRAS G12C, sequence (P62937 whole entry): as the sequence (P62937 whole entry) above
KRAS G12S, sequence (P01116 1-169 isoform P01116-2 G12S limits assumed): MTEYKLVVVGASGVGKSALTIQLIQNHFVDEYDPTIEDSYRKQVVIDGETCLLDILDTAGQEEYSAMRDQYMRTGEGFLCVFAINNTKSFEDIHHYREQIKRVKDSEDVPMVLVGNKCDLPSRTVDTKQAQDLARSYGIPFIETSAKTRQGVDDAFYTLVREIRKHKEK
KRAS G12S, sequence (P62937 whole entry): as the sequence (P62937 whole entry) above
KRAS G13C, sequence (P01116 1-169 isoform P01116-2 G13C): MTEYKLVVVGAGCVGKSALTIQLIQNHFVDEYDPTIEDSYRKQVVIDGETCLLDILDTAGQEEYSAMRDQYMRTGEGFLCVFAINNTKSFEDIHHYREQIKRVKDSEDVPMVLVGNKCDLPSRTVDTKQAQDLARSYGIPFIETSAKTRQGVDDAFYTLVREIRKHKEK
KRAS G13C, sequence (P62937 whole entry): as the sequence (P62937 whole entry) above
KRAS G13D, sequence (P01116 1-169 isoform P01116-2 G13D limits assumed): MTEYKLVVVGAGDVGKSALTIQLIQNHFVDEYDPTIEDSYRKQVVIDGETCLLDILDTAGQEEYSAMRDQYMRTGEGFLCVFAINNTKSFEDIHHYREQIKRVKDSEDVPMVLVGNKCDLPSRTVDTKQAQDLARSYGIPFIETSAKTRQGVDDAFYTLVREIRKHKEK
KRAS G13D, sequence (P62937 whole entry): as the sequence (P62937 whole entry) above
KRAS G12V, sequence (P01116 1-169 isoform P01116-2 G12V limits assumed): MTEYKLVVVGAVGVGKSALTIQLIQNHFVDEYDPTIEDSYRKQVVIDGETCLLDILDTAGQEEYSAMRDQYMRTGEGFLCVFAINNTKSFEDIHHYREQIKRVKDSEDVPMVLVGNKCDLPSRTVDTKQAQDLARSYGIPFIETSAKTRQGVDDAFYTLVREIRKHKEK
KRAS G12V, sequence (P62937 whole entry): as the sequence (P62937 whole entry) above
KRAS G12D, sequence (P01116 1-169 isoform P01116-2 G12D limits assumed): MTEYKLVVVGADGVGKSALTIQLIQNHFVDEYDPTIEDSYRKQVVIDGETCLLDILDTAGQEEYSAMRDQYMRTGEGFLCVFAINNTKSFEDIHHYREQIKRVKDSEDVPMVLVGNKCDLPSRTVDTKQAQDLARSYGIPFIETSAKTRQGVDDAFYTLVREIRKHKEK
KRAS G12D, sequence (P62937 whole entry): as the sequence (P62937 whole entry) above
KRAS WT, sequence (P01116 1-169 isoform P01116-2 limits assumed): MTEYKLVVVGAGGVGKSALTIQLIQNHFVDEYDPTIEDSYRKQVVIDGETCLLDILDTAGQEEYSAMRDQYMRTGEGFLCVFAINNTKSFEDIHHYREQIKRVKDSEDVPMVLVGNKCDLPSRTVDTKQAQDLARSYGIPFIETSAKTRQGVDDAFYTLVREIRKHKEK
KRAS WT, sequence (P62937 whole entry): as the sequence (P62937 whole entry) above

| EC50 [1, 2] [nM] | IC50 (NCI-H358 (K-Ras G12C); [3]) [µM] | IC50 (KRAS G12D) [nM] | IC50 (KRAS WT) [nM] | IC50 (NRAS G12C) [nM] | IC50 (KRAS G13D) [nM] | IC50 (KRAS G12V) [nM] | IC50 (KRAS G12C) [nM] | IC50 (KRAS G13C) [nM] | IC50 (KRAS G12S) [nM] | EC50 ([1]; NCI-H358, read-out: pERK EC50) [nM] | IC50 (NCI-H358 (K-Ras G12C); NCI-H358, read-out: Additional H358 Cell Viability assay data (K-Ras G12C, IC50, uM), H358, K-Ras G12C) [µM] | Compound |
| --- | --- | --- | --- | --- | --- | --- | --- | --- | --- | --- | --- | --- |
| < 5000 | 0.1 to 1 | 1000 to 10000 | 100 to 1000 | 10 to 100 | 100 to 1000 | 100 to 1000 | 10 to 100 | 100 to 1000 | 100 to 1000 | – | – | CCn1c(-c2cccnc2COC)c2c3cc(ccc31)-c1cc(O)cc(c1)C[C@H](NC(=O)[C@H](C(C)C)N(C)C(=O)[C@H]1CCN(C(=O)/C=C\CN(C)C)C1)C(=O)N1CCC[C@H](N1)C(=O)OCC(C)(C)C2 [Example A164] |
| – | – | – | – | – | – | – | – | – | – | < 5000 | 0.1 to 1 | CC#CC(=O)N1CC[C@H](C(=O)N(C)[C@@H](C(=O)N[C@H]2Cc3cc(O)cc(c3)-c3ccc4c(c3)c(c(-c3cccnc3[C@H](C)OC)n4CC)CC(C)(C)COC(=O)[C@@H]3CCCN(N3)C2=O)C(C)C)C1 [Example A199] |
| < 5000 | < 0.01 | – | – | < 10 | – | – | – | – | – | – | – | CCn1c(-c2cccnc2[C@H](C)OC)c2c3cc(ccc31)-c1cccc(c1)C[C@H](NC(=O)[C@H](C(C)C)N(C)C(=O)[C@H]1CCN(C(=O)C#C[C@@H]3CCO3)C1)C(=O)N1CCC[C@H](N1)C(=O)OCC(C)(C)C2 [Example A509] |
| < 5000 | < 0.01 | – | – | – | – | – | – | – | – | – | – | CCn1c(-c2cccnc2[C@H](C)OC)c2c3cc(ccc31)-c1cccc(c1)C[C@H](NC(=O)[C@H](C(C)C)N1CC[C@@]3(CCN(C(=O)C#C[C@@H]4COCCN4C4COC4)C3)C1=O)C(=O)N1CCC[C@H](N1)C(=O)OCC(C)(C)C2 [Example A566] |

Continued, molecule first:

| Compound | EC50 [1, 2] [nM] | IC50 (NCI-H358 (K-Ras G12C); [3]) [µM] | IC50 (KRAS G12D) [nM] | IC50 (KRAS WT) [nM] | IC50 (NRAS G12C) [nM] | IC50 (KRAS G13D) [nM] | IC50 (KRAS G12V) [nM] | IC50 (KRAS G12C) [nM] | IC50 (KRAS G13C) [nM] | IC50 (KRAS G12S) [nM] | EC50 ([1]; NCI-H358, read-out: pERK EC50) [nM] | IC50 (NCI-H358 (K-Ras G12C); NCI-H358, read-out: Additional H358 Cell Viability assay data (K-Ras G12C, IC50, uM), H358, K-Ras G12C) [µM] |
| --- | --- | --- | --- | --- | --- | --- | --- | --- | --- | --- | --- | --- |
| CCn1c(-c2cccnc2COC)c2c3cc(ccc31)-c1cc(O)cc(c1)C[C@H](NC(=O)[C@@H](C(C)C)N(C)C(=O)[C@H]1CCN(C(=O)C#CC(C)N3CCOCC3)C1)C(=O)N1CCC[C@H](N1)C(=O)OCC(C)(C)C2 (stereo partly drawn) [Example A200] | < 5000 | 0.1 to 1 | > 10000 | > 10000 | 10 to 100 | > 10000 | > 10000 | 10 to 100 | 1000 to 10000 | > 10000 | – | – |
| CCn1c(-c2cccnc2COC)c2c3cc(ccc31)-c1cc(O)cc(c1)C[C@H](NC(=O)[C@H](C(C)C)N(C)C(=O)[C@H]1CCN(C(=O)C#CC(C)(C)N(C)C)C1)C(=O)N1CCC[C@H](N1)C(=O)OCC(C)(C)C2 [Example A162] | < 5000 | < 0.01 | 1000 to 10000 | 1000 to 10000 | < 10 | 1000 to 10000 | 100 to 1000 | < 10 | 100 to 1000 | 1000 to 10000 | – | – |
| C=CC(=O)N1CC[C@H](C(=O)N(C)[C@H](C(=O)N[C@H]2Cc3cccc(c3)-c3ccc4c(c3)c(c(-c3cccnc3COC)n4CC)CC(C)(C)COC(=O)[C@@H]3CCCN(N3)C2=O)C(C)C)C1 [Example A65] | < 5000 | 0.1 to 1 | – | – | – | – | – | – | – | – | – | – |
